Source: patent publication US20210253568A1, “AZAINDOLE DERIVATIVES AS RHO-KINASE INHIBITORS” (CHIESI FARMACEUTICI S.p.A., priority 2018, published 2021)

Experiments:
ROCK 1 = ROCK 1 (Homo sapiens, UniProt Q13464); experiment: In vitro Rho kinase inhibitory activity assay (ADP-Glo), Rho kinase 1; format: biochemical; settings: Ki by Cheng-Prusoff from IC50; 10 μM ATP, 25° C., expressed as range of activity
Description: (§1) The effectiveness of compounds of the present invention to inhibit Rho kinase activity can be determined in a 10 μl assay containing 40 mM Tris pH7.5, 20 mM MgCl2 0.1 mg/mi BSA, 50 μM DTT and 2.5 μM peptide substrate (Myelin Basic Protein) using an ADP-Glo kit (Promega). Compounds were dissolved in DMSO such that the final concentration of DMSO was 1% in the assay. All reactions/incubations are performed at 25° C. Compound (2 ul) and either Rho kinase 1 or 2 (4 μl) were mixed and incubated for 30 mins. Reactions were initiated by addition of ATP (4 μl) such that the final concentration of ATP in the assay was 10 μM. After a 1 hour incubation 10 μl of ADP-Glo Reagent was added and after a further 45 minute incubation 20 ul of Kinase Detection Buffer was added and the mixture incubated for a further 30 minutes. The luminescent signal was measured on a luminometer. […] Compounds were tested in dose-response format and the inhibition of kinase activity was calculated at each concentration of compound. To determine the IC50 (concentration of compound required to inhibit 50% of the enzyme activity) data were fit to a plot of % inhibition vs Log10 compound concentration using a sigmoidal fit with a variable slope and fixing the maximum to 100% and the minimum to 0%. To determine the Ki values the Cheng-Prusoff equation was utilized (Ki=IC50/(1+[S]/Km).

ROCK 2 = ROCK 2 (Homo sapiens, UniProt O75116); experiment: In vitro Rho kinase inhibitory activity assay (ADP-Glo), Rho kinase 2; format: biochemical; settings: Ki by Cheng-Prusoff from IC50; 10 μM ATP, 25° C., expressed as range of activity
Description: as §1

Chain of ROCK 2 (O75116 whole entry): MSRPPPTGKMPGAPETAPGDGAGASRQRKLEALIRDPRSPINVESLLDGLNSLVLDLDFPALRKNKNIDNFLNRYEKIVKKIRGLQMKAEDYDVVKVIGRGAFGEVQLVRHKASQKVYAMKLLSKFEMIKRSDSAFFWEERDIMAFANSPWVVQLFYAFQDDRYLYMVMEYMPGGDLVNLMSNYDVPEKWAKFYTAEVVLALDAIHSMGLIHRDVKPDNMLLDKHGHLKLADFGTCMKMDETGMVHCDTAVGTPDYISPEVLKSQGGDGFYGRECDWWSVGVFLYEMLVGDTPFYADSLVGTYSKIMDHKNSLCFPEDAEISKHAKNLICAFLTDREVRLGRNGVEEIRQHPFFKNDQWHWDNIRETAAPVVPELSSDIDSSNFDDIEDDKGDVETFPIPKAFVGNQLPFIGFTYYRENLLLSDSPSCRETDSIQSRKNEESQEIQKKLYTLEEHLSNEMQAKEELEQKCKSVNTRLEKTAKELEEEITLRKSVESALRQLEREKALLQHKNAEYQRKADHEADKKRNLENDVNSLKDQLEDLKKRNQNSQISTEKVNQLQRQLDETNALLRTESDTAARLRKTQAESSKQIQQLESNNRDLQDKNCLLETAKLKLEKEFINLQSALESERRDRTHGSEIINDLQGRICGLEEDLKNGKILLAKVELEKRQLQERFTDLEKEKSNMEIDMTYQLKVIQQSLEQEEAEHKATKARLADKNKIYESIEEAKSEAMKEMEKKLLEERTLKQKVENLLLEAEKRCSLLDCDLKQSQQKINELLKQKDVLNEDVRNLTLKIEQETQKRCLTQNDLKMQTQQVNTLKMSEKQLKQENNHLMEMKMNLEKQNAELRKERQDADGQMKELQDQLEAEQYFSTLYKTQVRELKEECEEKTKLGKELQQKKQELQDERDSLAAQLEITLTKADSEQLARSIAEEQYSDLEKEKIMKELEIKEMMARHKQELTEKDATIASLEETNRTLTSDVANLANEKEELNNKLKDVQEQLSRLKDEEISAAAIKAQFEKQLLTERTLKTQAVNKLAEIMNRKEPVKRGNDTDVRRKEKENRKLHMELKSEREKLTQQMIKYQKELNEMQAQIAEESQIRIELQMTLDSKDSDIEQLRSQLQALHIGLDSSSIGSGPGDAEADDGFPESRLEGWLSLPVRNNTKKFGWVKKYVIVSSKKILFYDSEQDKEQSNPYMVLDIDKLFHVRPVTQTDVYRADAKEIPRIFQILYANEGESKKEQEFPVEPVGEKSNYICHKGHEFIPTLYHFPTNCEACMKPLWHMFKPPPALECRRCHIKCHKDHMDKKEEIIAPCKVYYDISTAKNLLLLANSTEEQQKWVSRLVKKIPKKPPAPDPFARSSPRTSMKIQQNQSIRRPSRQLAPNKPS
Chain of ROCK 1 (Q13464 whole entry): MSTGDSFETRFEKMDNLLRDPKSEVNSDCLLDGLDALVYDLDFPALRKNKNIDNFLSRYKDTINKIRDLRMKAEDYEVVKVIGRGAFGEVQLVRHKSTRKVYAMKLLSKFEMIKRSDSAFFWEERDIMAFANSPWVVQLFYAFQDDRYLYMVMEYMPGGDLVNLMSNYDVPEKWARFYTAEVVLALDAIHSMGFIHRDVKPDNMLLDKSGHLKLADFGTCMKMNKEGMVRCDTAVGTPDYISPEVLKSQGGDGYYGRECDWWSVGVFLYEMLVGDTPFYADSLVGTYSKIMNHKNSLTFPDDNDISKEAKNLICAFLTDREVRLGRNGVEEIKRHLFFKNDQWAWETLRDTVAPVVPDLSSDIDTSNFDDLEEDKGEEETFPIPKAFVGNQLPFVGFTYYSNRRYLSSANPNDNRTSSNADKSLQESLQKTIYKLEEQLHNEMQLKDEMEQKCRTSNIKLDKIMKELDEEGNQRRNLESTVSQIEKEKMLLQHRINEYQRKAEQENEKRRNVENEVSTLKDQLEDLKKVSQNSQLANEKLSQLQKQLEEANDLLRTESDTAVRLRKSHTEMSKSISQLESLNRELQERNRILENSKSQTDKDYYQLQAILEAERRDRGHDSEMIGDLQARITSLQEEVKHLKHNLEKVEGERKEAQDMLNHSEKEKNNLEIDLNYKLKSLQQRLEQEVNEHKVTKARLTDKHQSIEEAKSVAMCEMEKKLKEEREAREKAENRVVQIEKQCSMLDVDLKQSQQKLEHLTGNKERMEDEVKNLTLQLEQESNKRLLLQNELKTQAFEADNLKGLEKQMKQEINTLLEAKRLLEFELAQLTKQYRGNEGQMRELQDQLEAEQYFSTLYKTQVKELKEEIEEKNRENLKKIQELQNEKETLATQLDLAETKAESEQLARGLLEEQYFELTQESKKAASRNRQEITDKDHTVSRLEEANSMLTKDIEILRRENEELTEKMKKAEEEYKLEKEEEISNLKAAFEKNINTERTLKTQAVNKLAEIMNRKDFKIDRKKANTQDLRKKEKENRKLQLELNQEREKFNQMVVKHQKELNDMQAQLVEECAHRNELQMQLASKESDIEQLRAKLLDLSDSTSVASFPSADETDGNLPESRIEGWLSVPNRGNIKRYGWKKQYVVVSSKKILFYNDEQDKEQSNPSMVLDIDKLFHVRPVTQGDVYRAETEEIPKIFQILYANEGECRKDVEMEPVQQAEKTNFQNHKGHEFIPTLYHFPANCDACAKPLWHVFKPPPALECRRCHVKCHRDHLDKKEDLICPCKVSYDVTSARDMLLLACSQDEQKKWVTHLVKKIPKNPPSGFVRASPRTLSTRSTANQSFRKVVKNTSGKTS

Structure (SMILES)	Ki (ROCK 1)	Ki (ROCK 2)
C[C@@H](Nc1cc(-c2c[nH]c3nccc(Oc4ccc5c(c4)CNCC5)c23)ncn1)c1ccccc1 [Example 52, (R)-N-(1-phenylethyl)-6-(4-((1,2,3,4-tetrahydroisoquinolin-7-yl)oxy)-1H-pyrrolo[2,3-b]pyridin-3-yl)pyrimidin-4-amine]	< 3 nM	< 3 nM
C[C@H](Nc1cc(-c2c[nH]c3nccc(Oc4ccc5c(c4)CNCC5)c23)ncn1)c1ccccc1 [Example 54, (S)-N-(1-phenylethyl)-6-(4-((1,2,3,4-tetrahydroisoquinolin-7-yl)oxy)-1H-pyrrolo[2,3-b]pyridin-3-yl)pyrimidin-4-amine]	3 to 30 nM	< 3 nM
c1cncc(CCNc2cc(-c3c[nH]c4nccc(Oc5ccc6c(c5)CNCC6)c34)ncn2)c1 [Example 55, N-(2-(pyridin-3-yl)ethyl)-6-(4-((1,2,3,4-tetrahydroisoquinolin-7-yl)oxy)-1H-pyrrolo[2,3-b]pyridin-3-yl)pyrimidin-4-amine]	< 3 nM	< 3 nM

The next lines start with the values.

Ki (ROCK 1)	Ki (ROCK 2)	Structure (SMILES)
< 3 nM	< 3 nM	c1ccc(CCNc2cc(-c3c[nH]c4nccc(Oc5ccc6c(c5)CNCC6)c34)ncn2)cc1 [Example 53, N-phenethyl-6-(4-((1,2,3,4-tetrahydroisoquinolin-7-yl)oxy)-1H-pyrrolo[2,3-b]pyridin-3-yl)pyrimidin-4-amine]
3 to 30 nM	< 3 nM	c1ccc(CNc2cc(-c3c[nH]c4ncnc(Oc5ccc6c(c5)CNCC6)c34)ccn2)cc1 [Example 56, N-benzyl-4-(4-((1,2,3,4-tetrahydroisoquinolin-7-yl)oxy)-7H-pyrrolo[2,3-d]pyrimidin-5-yl)pyridin-2-amine]
